Assay results as given in patent US5840684A, “Glycopeptide antibiotic derivatives” (Eli Lilly and Company, priority 1995, dated 1998).
Values after ≈ are worked out from the molar mass of the structure shown.

How the values were obtained:
Entercoccus faecium 276 = experiment: broth micro-dilution MIC; assay type: cell-based
Method: (§1) The MIC's were determined using a standard broth micro-dilution assay.

[1] = tested on: Entercoccus faecium 180-1; experiment: broth micro-dilution MIC; assay type: cell-based
Method: as §1

[2] = tested on: Staphylococcus aureus SA1199; experiment: broth micro-dilution MIC; assay type: cell-based
Method: as §1

[3] = tested on: Staphylococcus aureus X778; experiment: broth micro-dilution MIC; assay type: cell-based
Method: as §1

[4] = tested on: Streptococcus pyogenes C203; experiment: broth micro-dilution MIC; assay type: cell-based
Method: as §1

[5] = tested on: Staphylococcus aureus 491; experiment: broth micro-dilution MIC; assay type: cell-based
Method: as §1

[6] = tested on: Staphylococcus aureus 446; experiment: broth micro-dilution MIC; assay type: cell-based
Method: as §1

[7] = tested on: Staphylococcus aureus X400; experiment: broth micro-dilution MIC; assay type: cell-based
Method: as §1

[8] = tested on: vancomycin-resistant enterococci; experiment: broth micro-dilution, mean geometric MIC; assay type: cell-based, Enterococcus faecium and Enterococcus faecalis; settings: enterococci, 24-hour incubation
[9] = tested on: Staphylococcus aureus S13E; assay type: cell-based
Method: as §1

[10] = tested on: vancomycin-susceptible enterococci; experiment: broth micro-dilution, mean geometric MIC; assay type: cell-based, Enterococcus faecium and Enterococcus faecalis; settings: enterococci, 24-hour incubation
Entercoccus faecium 180 = experiment: broth micro-dilution MIC; assay type: cell-based; settings: Entercoccus faecium 180
Method: (§2) The formula I compounds have in vitro and in vivo activity against Gram-positive pathogenic bacteria. The MIC's were determined using a standard broth micro-dilution assay.

[11] = tested on: Staphylococcus haemolyticus 415; experiment: broth micro-dilution MIC; assay type: cell-based
Method: as §2

[12] = tested on: Staphylococcus epidermidis 270; experiment: broth micro-dilution MIC; assay type: cell-based
Method: as §2

[13] = tested on: Streptococcus pneumoniae P1; experiment: broth micro-dilution MIC; assay type: cell-based
Method: as §2

Entercoccus faecium 2041 = experiment: broth micro-dilution MIC; assay type: cell-based; settings: Entercoccus faecium 2041
Method: as §2

[14] = tested on: Staphylococcus haemolyticus 105; experiment: broth micro-dilution MIC; assay type: cell-based
Method: as §2

[15] = tested on: Staphylococcus aureus SA1199A; experiment: broth micro-dilution MIC; assay type: cell-based
Method: as §1

[16] = tested on: Staphylococcus aureus 447; experiment: broth micro-dilution MIC; assay type: cell-based
Method: as §1

[17] = tested on: Staphylococcus aureus SA1199B; assay type: cell-based
Method: as §1

[18] = tested on: Enterococcus gallinarum 245; experiment: broth micro-dilution MIC; assay type: cell-based; settings: Enterococcus gallinarum 245
Method: as §2

SMILES	MIC [1] [µg/mL]	MIC [2] [µg/mL]	MIC [3] [µg/mL]	MIC [4] [µg/mL]	MIC [5] [µg/mL]	MIC [6] [µg/mL]	MIC [7] [µg/mL]	mean geometric MIC, Vancomycin Resistant Strains [8] [µg/mL]	MIC [9] [µg/mL]	mean geometric MIC, Vancomycin Sensitive Strains [10] [µg/mL]	MIC (Entercoccus faecium 180) [µg/mL]	MIC [11] [µg/mL]	MIC [12] [µg/mL]	MIC [13] [µg/mL]	MIC (Entercoccus faecium 2041) [µg/mL]	MIC [14] [µg/mL]	MIC [15] [µg/mL]	MIC [16] [µg/mL]	MIC [17] [µg/mL]	MIC [18] [µg/mL]	further results
CNC(CC(C)C)C(=O)NC1C(=O)NC(CC(N)=O)C(=O)NC2C(=O)NC3C(=O)NC(C(=O)NC(C(=O)O)c4cc(O)cc(O)c4-c4cc3ccc4O)C(OC3CC(C)(N)C(O)C(C)O3)c3ccc(c(Cl)c3)Oc3cc2cc(c3OC2OC(CO)C(O)C(O)C2OC2CC(C)(NCC=Cc3ccccc3)C(O)C(C)O2)Oc2ccc(cc2Cl)C1O (stereo not shown) [Compound 38]	≤ 0.06	1 (≈ 0.585 µM)	0.5 (≈ 0.293 µM)	≤ 0.06	0.5 (≈ 0.293 µM)	0.5 (≈ 0.293 µM)	1 (≈ 0.585 µM)	4.0	≤ 0.06	0.42	≤ 0.06	1 (≈ 0.585 µM)	0.5 (≈ 0.293 µM)	≤ 0.06	≤ 0.06	1 (≈ 0.585 µM)					MIC (Entercoccus faecium 276): 0.5 µg/mL (≈ 0.293 µM)
CNC(CC(C)C)C(=O)NC1C(=O)NC(CC(N)=O)C(=O)NC2C(=O)NC3C(=O)NC(C(=O)NC(C(=O)O)c4cc(O)cc(O)c4-c4cc3ccc4O)C(OC3CC(C)(N)C(O)C(C)O3)c3ccc(c(Cl)c3)Oc3cc2cc(c3OC2OC(CO)C(O)C(O)C2OC2CC(C)(NCCc3cccc(OCc4ccccc4)c3)C(O)C(C)O2)Oc2ccc(cc2Cl)C1O (stereo not shown) [Compound 69]	≤ 0.06	1 (≈ 0.555 µM)			1 (≈ 0.555 µM)	1 (≈ 0.555 µM)	0.5 (≈ 0.277 µM)	13		0.44	4 (≈ 2.22 µM)	8 (≈ 4.44 µM)	2 (≈ 1.11 µM)			4 (≈ 2.22 µM)	≤ 0.06	1 (≈ 0.555 µM)	2 (≈ 1.11 µM)	8 (≈ 4.44 µM)	MIC (Entercoccus faecium 276): 0.5 µg/mL (≈ 0.277 µM)
CNC(CC(C)C)C(=O)NC1C(=O)NC(CC(N)=O)C(=O)NC2C(=O)NC3C(=O)NC(C(=O)NC(C(=O)O)c4cc(O)cc(O)c4-c4cc3ccc4O)C(OC3CC(C)(N)C(O)C(C)O3)c3ccc(c(Cl)c3)Oc3cc2cc(c3OC2OC(CO)C(O)C(O)C2OC2CC(C)(NCc3cc(C)cc(C)c3)C(O)C(C)O2)Oc2ccc(cc2Cl)C1O (stereo not shown) [Compound 89]	≤ 0.06	0.5 (≈ 0.292 µM)		≤ 0.06	1 (≈ 0.585 µM)	0.5 (≈ 0.292 µM)		11		0.44	0.125 (≈ 0.0731 µM)	2 (≈ 1.17 µM)	1 (≈ 0.585 µM)	≤ 0.06	≤ 0.06	1 (≈ 0.585 µM)	≤ 0.06	1 (≈ 0.585 µM)	1 (≈ 0.585 µM)	≤ 0.06	MIC (Entercoccus faecium 276): ≤ 0.06 µg/mL
CNC(CC(C)C)C(=O)NC1C(=O)NC(CC(N)=O)C(=O)NC2C(=O)NC3C(=O)NC(C(=O)NC(C(=O)O)c4cc(O)cc(O)c4-c4cc3ccc4O)C(OC3CC(C)(N)C(O)C(C)O3)c3ccc(c(Cl)c3)Oc3cc2cc(c3OC2OC(CO)C(O)C(O)C2OC2CC(C)(NCc3ccc(OC(C)=O)c(OC)c3)C(O)C(C)O2)Oc2ccc(cc2Cl)C1O (stereo not shown) [Compound 99]	≤ 0.06	0.5 (≈ 0.282 µM)	0.5 (≈ 0.282 µM)		1 (≈ 0.565 µM)	0.5 (≈ 0.282 µM)		72	0.5 (≈ 0.282 µM)	0.76		32 (≈ 18.1 µM)	1 (≈ 0.565 µM)			8 (≈ 4.52 µM)	0.5 (≈ 0.282 µM)	2 (≈ 1.13 µM)	0.5 (≈ 0.282 µM)	32 (≈ 18.1 µM)	
CNC(CC(C)C)C(=O)NC1C(=O)NC(CC(N)=O)C(=O)NC2C(=O)NC3C(=O)NC(C(=O)NC(C(=O)O)c4cc(O)cc(O)c4-c4cc3ccc4O)C(OC3CC(C)(N)C(O)C(C)O3)c3ccc(c(Cl)c3)Oc3cc2cc(c3OC2OC(CO)C(O)C(O)C2OC2CC(C)(NCc3ccc(N4CCOCC4)cc3)C(O)C(C)O2)Oc2ccc(cc2Cl)C1O (stereo not shown) [Compound 147]	2 (≈ 1.13 µM)	0.5 (≈ 0.283 µM)		≤ 0.06	≤ 0.06	0.5 (≈ 0.283 µM)	4 (≈ 2.26 µM)		1 (≈ 0.566 µM)	1.3	2 (≈ 1.13 µM)	8 (≈ 4.53 µM)		≤ 0.06	≤ 0.06	1 (≈ 0.566 µM)	≤ 0.06		≤ 0.06		
CNC(CC(C)C)C(=O)NC1C(=O)NC(CC(N)=O)C(=O)NC2C(=O)NC3C(=O)NC(C(=O)NC(C(=O)O)c4cc(O)cc(O)c4-c4cc3ccc4O)C(OC3CC(C)(N)C(O)C(C)O3)c3ccc(c(Cl)c3)Oc3cc2cc(c3OC2OC(CO)C(O)C(O)C2OC2CC(C)(NCc3ccc([S+]([O-])c4ccccc4)cc3)C(O)C(C)O2)Oc2ccc(cc2Cl)C1O (stereo not shown) [Compound 159]	≤ 0.06		2 (≈ 1.11 µM)	≤ 0.06	2 (≈ 1.11 µM)	0.5 (≈ 0.277 µM)	4 (≈ 2.21 µM)	27	1 (≈ 0.553 µM)	0.50	2 (≈ 1.11 µM)	8 (≈ 4.43 µM)	0.5 (≈ 0.277 µM)	≤ 0.06		16 (≈ 8.86 µM)	≤ 0.06	4 (≈ 2.21 µM)	≤ 0.06	8 (≈ 4.43 µM)	
CNC(CC(C)C)C(=O)NC1C(=O)NC(CC(N)=O)C(=O)NC2C(=O)NC3C(=O)NC(C(=O)NC(C(=O)O)c4cc(O)cc(O)c4-c4cc3ccc4O)C(OC3CC(C)(N)C(O)C(C)O3)c3ccc(c(Cl)c3)Oc3cc2cc(c3OC2OC(CO)C(O)C(O)C2OC2CC(C)(NCc3ccc4c(c3)CCCC4)C(O)C(C)O2)Oc2ccc(cc2Cl)C1O (stereo not shown) [Compound 168]	≤ 0.06	0.5 (≈ 0.288 µM)	0.5 (≈ 0.288 µM)	≤ 0.06	0.5 (≈ 0.288 µM)	≤ 0.06	≤ 0.06	3.4	≤ 0.06	0.10	0.25 (≈ 0.144 µM)	2 (≈ 1.15 µM)		≤ 0.06	≤ 0.06	0.5 (≈ 0.288 µM)	≤ 0.06	≤ 0.06	1 (≈ 0.576 µM)	2 (≈ 1.15 µM)	
